Converted amounts (≈) assume the structure as drawn.
How the values were obtained:
[1] = tested on: RANTES induced THP-1 migration; test: THP-1 trans-well migration assay, RANTES as chemoattractant; type: cell-based, human; details: Homo sapiens, THP-1; read-out: ED50, RANTES chemotaxis assay
Method: To determine whether an agent inhibits a chemokine-induced activity, such as macrophage recruitment, varying amounts of the agent are mixed with cells in the presence of a known chemoattractant. For example, a range of known concentrations of an agent, e.g., a chemokine peptide, is incubated with a defined number (e.g., 10^4-10^6) of human THP-1 monocyte cells in individual wells of the top compartment of a trans-well plate. Chemokine (such as MCP-1, MIP1α, IL8 or SDF-1α), at a concentration known to cause significant migration of THP-1 cells in the trans-well migration assay, is placed in the lower compartment (FIG. 1). […] A standard curve consisting of a two-fold dilution series of THP-1 cells (in 29 μl) is prepared to accurately quantify the number of cells that have migrated. […] Absorbance of converted dye is measured at a wavelength of 595 nm using an ELISA plate reader. The number of migrated cells in each well is then determined by interpolation of the standard curve (see also Imai et al., J. Biol. Chem., 272, 15036 (1997)). […]
After incubation, the cells were gently removed from the top of the filter with a pipette, 20 μl of 20 mM EDTA in PBS was added into each top well, and the mixture was incubated for 20 minutes at 4° C. […] A standard curve was prepared to accurately quantify the number of THP-1 cells that had migrated. […]

## C=CCCCCCCCCC(=O)N[C@H]1CCC(=O)NC1=O [A-I (NR58.4), [3S]-3-(undec-10-enoylamino)piperidine-2,6-dione]
physchem
  pKa: ~11
physchem; organic solvent or mixture
  solubility: > 200000 µg/mL
physchem; pH 11, water
  solubility: 5000 µg/mL (≈ 17 mM)
[1]
  EC50: 300 pM

From patent publication US7989466B2, “Methods to inhibit or augment an inflammatory response” (Cambridge Enterprise Limited, priority 1999, dated 2011)
